Data: patent publication US20150087037A1, “FERMENTATION PROCESS” (LanzaTech New Zealand Limited, priority 2013, published 2015)

How the values were obtained:
Type in all cases: cell-based, Clostridium autoethanogenum
[1] = test system: C. autoethanogenum DSM23693; test: Minimum 2-HIBA concentration needed to impact 2,3-butanediol production, continuous addition through the media (Example 4)
Procedure: (§1) Fermentations with C. autoethanogenum DSM23693 were carried out in 1.5 L bioreactors at 37° C. The media was prepared according to Table 1. To achieve anaerobicity the reactor vessel was sparged with nitrogen. Prior to inoculation, the gas was switched to either steel mill gas containing H2 (3%), N2 (30%), CO (47%) and CO2 (20%) or pure gases (50% CO, 18-40% CO2, with the balance N2). The gas flow was initially set at 67 ml/min/L, increasing to 200 ml/min during mid-exponential phase, while the agitation was increased from 200 rpm to 800. Na2S was dosed into the bioreactor at 0.25 ml/hr. Once the OD600 reached 1.5, the bioreactor was switched to a continuous mode at a dilution rate of 2.0-1.6 d-l and a bacterial dilution rate of 0.9-0.6 d-l. During continuous mode gas and agitation were adjusted to 900-950 rpm and 800-900 ml/min. Na2S was increased to 1.0 ml/hr.
(§2) Liquid culture samples were taken at differing intervals over the duration of the fermentation. These samples were used to establish the optical density at 600 nm (spectrophotometer) and the level of substrates and products (high performance liquid chromatography—HPLC). HPLC was routinely used to quantify the level of acetate, ethanol and 2,3-butanediol. The input and output gas compositions were analysed using a gas chromatographer (GC), allowing measurement of CO and H2 consumption and CO2 production by the culture.
In order to understand the minimum concentrations needed to generate the same effect the concentration used was dropped to 0.1 g/L (0.96 mM) in one example and 0.05 g/L (0.48 mM) in another example. Both fermentations had gas increased to minimize acetate and maximize ethanol production. Additional CO2 was blended into the gas stream to maximize 2,3-BDO production, the gas blend used was 50% CO, 35% CO2, 1.5% H2 with N2 balance. The dilution rate and bacterial dilution rate were adjusted to 1.8 day^−1 and 0.8 day^−1 respectively. Once stable data was collected continuous 2-HIBA addition through the media was started and resulting impact on metabolite concentrations observed. In both examples the ratio before the addition of 2-HIBA was about 2:1, and the resulting impact on the Ethanol:2,3-BDO ratio was proportional to the concentration of 2-HIBA used. In the first example where 0.1 g/L (0.96 mM) was used the ratio improved to 1:1 and when the concentration was halved (in the second example) the response was an improvement in the ratio to only 1.5:1.
In two further experiments concentrations from 0.01 g/L to 0.1 g/L (0.096, 0.24, 0.48, 0.72, 0.96 mM) were added and the impact on the metabolites observed. Again the fermentations had gas increased to minimize acetate and maximize ethanol production with CO2 blended into the gas stream to maximize 2,3-BDO production. The dilution rate and bacterial dilution rate were adjusted to 1.8 day^−1 and 0.9 day^−1 respectively. The gas blend used was 42% CO, 35% CO2, 1.5% H2 with N2 balance.

[2] = test system: C. autoethanogenum DSM23693; test: Linked two reactor (R1, R2) fermentation system, continuous 2-HIBA addition (Examples 2 and 3)
Procedure: as §1, §2
A two reactor system was used to examine the impact of continuous 2-HIBA addition on the metabolite profile. Initially 0.5 g/L/day (4.8 mM/day) 2-HIBA was added to the R2 only, this increased the production of 2,3-BDO but the ratio only dropped to as low as 1.9:1. Continuous addition of 2-HIBA at 0.5 g/L/day (4.8 mM/day) was then added to the R1. […] This would be achieved by improving the concentration in both the R1 and the R2 as the 2-HIBA is transferred from the R1 to the R2 (through liquid flow) along with improved 2,3-BDO concentrations. The 2,3-BDO concentration increased from 5.7 g/L to 14 g/L in the R1 and from 16 g/L to 21 g/L in the R2 (see FIGS. 3 and 4). The ratio of ethanol:2,3-BDO dropped to 1:1 in the R1 and 1.3:1 in the R2 and remained stable for a period of eight days. The improvement of the ratio was achieved as a result of increased 2,3-BDO concentration and a drop in ethanol production.
Over time the ethanol concentration after the 2-HIBA addition improved whilst the concentration of 2,3-BDO remained stable, this had the effect of improving the total alcohol productivity of the system.
The results achieved in Example 2 were repeated with the aim to improve the overall titre of 2,3-BDO. In this experiment the 2-HIBA concentration was increased to 1 g/L/day (9.6 mM/day).

[3] = test system: branch chain amino acid production; test: Monitoring BCAA production during 2-HIBA addition (Example 7); conditions: FIG. 11
Source text: In order to generate further evidence that 2-HiBA interferes with branch chain amino acid production, the concentrations of these amino acids were monitored directly before and after the addition of 2-HIBA. FIG. 11 illustrates the results; immediately after the addition of 2-HIBA the concentrations of valine, leucine and isoleucine drop as well as biomass.

[4] = test system: C. autoethanogenum DSM23693; test: Fermentation started in the presence of 2-HIBA, impact on growth (Example 5)
Procedure: as §1, §2
To see if the 2-HIBA impacts negatively on growth a fermentation was started in the presence of 0.05 g/L (0.48 mM) 2-HIBA. During growth gas and agitation were increased so that by day 5.0 the agitation had reached a maximum of 950 rpm and the gas flow 800 ml/min. At this time the dilution rate was 1.8 day^−1 and the bacterial dilution rate 0.85 day^−1.

[5] = R1, average across eight days, 0.5 g/L/day 2-HIBA
[6] = R1, gas data average across eight days, 0.5 g/L/day 2-HIBA
[7] = R2, average across eight days, 0.5 g/L/day 2-HIBA
[8] = R2, gas data average across eight days, 0.5 g/L/day 2-HIBA
[9] = over time after 2-HIBA addition

How did the “lowest concentration that impacts on the production of 2,3-butanediol” value ([1]; 0.01 g/L to 0.1 g/L tested, 0.01 g/L = 0.096 mM) turn out when `CC(C)(O)C(=O)O` [2-HIBA, 2-hydroxyisobutyric acid] was run?
The value was 0.01 g/L.

And the CO uptake ([1]; Expt 1: 0.96 mM/day HIBA addition, before 9.4)?
Its CO uptake is 9.8 mol/L/day.

And the “2,3-BDO” value ([1]; Expt 1: 0.96 mM/day HIBA addition, before 9.67)?
The value was 16.35 g/L.

And the Biomass ([1]; Expt 1: 0.96 mM/day HIBA addition, before 10.7)?
Its Biomass is 9.83 g/L.

What about the Ethanol ([1]; Expt 1: 0.96 mM/day HIBA addition, before 20.33) of the same compound?
The Ethanol was 17.05 g/L.

What about the CO uptake ([1]; Expt 2: 0.48 mM/day HIBA addition, before 8.2) of the same compound?
Its CO uptake is 8 mol/L/day.

What about the “2,3-BDO” value ([1]; Expt 2: 0.48 mM/day HIBA addition, before 8.42) of the same compound?
Its value is 10.56 g/L.

What about the Biomass ([1]; Expt 2: 0.48 mM/day HIBA addition, before 12.69) of the same compound?
The Biomass was 12.14 g/L.

And the Ethanol ([1]; Expt 2: 0.48 mM/day HIBA addition, before 18.73)?
Its Ethanol is 15.56 g/L.

And the “drop of Ethanol:2,3-BDO ratio” value ([1]; for every 0.05 g/L (0.48 mM) added to a stable fermentation, data of four examples, FIG. 8)?
Its value is 0.5 units.

What about the “impact on CO and hydrogen uptake” value ([2]; 0.5 g/L/day 2-HIBA, FIGS. 5 and 6) of the same compound?
Its value is “did not negatively impact”.

What about the “2,3-BDO concentration in R1” value ([2]; 0.5 g/L/day (4.8 mM/day) 2-HIBA added to R1, increased from 5.7 g/L) of the same compound?
The value was 14 g/L.

And the “impact on gas uptake” value ([2]; 1 g/L/day (9.6 mM/day) 2-HIBA)?
Its value is “not negatively impacted”.

What about the “overall 2,3-BDO concentration” value ([2]; 1 g/L/day (9.6 mM/day) 2-HIBA, highest reached, FIG. 7) of the same compound?
The value was 23.9 g/L.

What about the Acetate ([2]; R1, average across eight days of stable operation, 0.5 g/L/day 2-HIBA) of the same compound?
The Acetate was 6.5 g/L.

And the “2,3 BDO” value [2, 5]?
Its value is 13.7 g/L.

And the “2,3 BDO productivity” value [2, 5]?
Its value is 27 g/L/day.

And the Biomass [2, 5]?
Its Biomass is 9.2 g/L.

What about the Ethanol [2, 5] of the same compound?
The Ethanol was 14.4 g/L.

And the Lactate [2, 5]?
Its Lactate is 0.0 g/L.

And the CO2 production [2, 6]?
Its CO2 production is 5630 mmol/L.

And the CO uptake [2, 6]?
Its CO uptake is -8830 mmol/L.

And the CO utilisation [2, 6]?
The CO utilisation was 53%.

And the H2 production [2, 6]?
Its H2 production is 423 mmol/L.

And the “2,3 BDO” value [2, 7]?
Its value is 21.3 g/L.

What about the “2,3 BDO productivity” value [2, 7] of the same compound?
Its value is 16 g/L/day.

What about the Acetate [2, 7] of the same compound?
Its Acetate is 7.8 g/L.

What about the Biomass [2, 7] of the same compound?
The Biomass was 15.6 g/L.

What about the Ethanol [2, 7] of the same compound?
The Ethanol was 28.3 g/L.

What about the Lactate [2, 7] of the same compound?
The Lactate was 0.0 g/L.

And the CO2 production [2, 8]?
Its CO2 production is 4932 mmol/L.

What about the CO uptake [2, 8] of the same compound?
Its CO uptake is -7930 mmol/L.

And the CO utilisation [2, 8]?
Its CO utilisation is 63%.

What about the H2 production [2, 8] of the same compound?
Its H2 production is 413 mmol/L.

And the “concentrations of valine, leucine and isoleucine and biomass” value ([3]; immediately after the addition of 2-HIBA (100 mg, 0.96 mM))?
The value was “drop”.

What about the concentration of isoleucine [3, 9] of the same compound?
The concentration of isoleucine was “appears to recover”.

And the “concentration of leucine and valine” value [3, 9]?
The value was “remaining lower than the value before 2-HIBA addition”.

What about the average ethanol concentration ([4]; 0.05 g/L (0.48 mM) 2-HIBA) of the same compound?
Its average ethanol concentration is 17 g/L.

What about the “impact on the growth of the fermentation” value ([4]; 0.05 g/L (0.48 mM) 2-HIBA in the media from start) of the same compound?
Its value is “no impact on the growth”.

And the “2,3-butanediol concentration” value ([4]; 0.05 g/L (0.48 mM) 2-HIBA, average)?
Its value is 15.5 g/L.
